The values below come from patent US20080015147A1, “Method for inhibiting neuronal cell death” (priority 2006, published 2008).

What all share (assay type): cell-based, mouse
In one assay the test system is caspase 8. Put plainly: Caspase 8 colorimetric assay. As to conditions: pH 7.4; apoptotic control. The procedure:
(§1) Caspase 8 and 3 colorimetric assays were performed on the N38 cells at all pH conditions. The assay was based on the detection of the chromophore pNA after cleavage from the labeled substrate IETD-pNA and DEVD-pNA for caspase 8 and 3, respectively. Comparison of the pNA absorbance from the suspected apoptotic sample was compared to the uninduced neutral pH sample. Caspase 8 and 3 were analysed using the Caspase-3 Colorimetric Activity Assay (Chemicon, Temecula USA) and Caspase-8 Colorimetric Activity Assay (Chemicon, Temecula USA). The cells from each pH treatment described previously at 24 and 48 hrs were removed using a cell scraper and centrifuged at 1500 rpm for 10 minutes. The cells were resuspended in 350 μl of chilled cell lysis buffer containing 500 μl PBS, 5 μl 1% Triton ×100 (Sigma, St. Louis), 25 μl proteinase inhibitor cocktail set III (VWR, Mississauga), 0.5 μM dithiothreitol (DTT) (Sigma, St. Louis) and 2.5 μl phenylmethylsulphonylfluoride (PMSF) diluted in 1 mL of methanol (EM Science, Gibbstown), then incubated on ice for 10 min and centrifuged for 5 minutes at 10,000 rpm. The supernatant, consisting of cytosolic extracts, was transferred to a new tube and a bicinchoninic acid (BCA) protein assay (Pierce, Rockford) was conducted to determine total protein concentration. The absorbance of each sample was measured on a SPECTRAmax Microplate spectrophotometer at 405 nm after an incubation period of 2 hours at 37° C. Changes in caspase 3 activity were determined by comparing the absorbance reading from the induced sample with the level of the uninduced control. Background readings from the buffer were subtracted from the reading of both the induced (pH 6.8, 8.0, 8.4) and uninduced (pH 7.4) samples before calculating changes in caspase 3 activity. The same was done for the detection of caspase 8. As a control, N38 cells were cultured with pH 7.4 DMEM and incubated for 4 days, apoptosis was then induced using 10 μM/ml etoposide and lysed according to the above protocol and used a control for all subsequent caspase 3 detection. All assays were performed with 4 replications.

A further assay has as its system caspase 3. The experiment in a line: Caspase 3 colorimetric assay. The following applies: pH 7.4; apoptotic control. The method, then: as §1
Another assay has as its system cleaved caspase 3. Put plainly: Caspase 3 cleavage by immunoblot. As to conditions: 48 hr; any pH condition for TCAP-1. The procedure:
Detection of caspase 3 cleavage was determined at 48 hrs. The samples at each pH and control (see above) were lysed using total protein isolation lysis buffer (described above). An aliquot of 25 μl of each sample was combined with 25 μl of 2×20% sodium dodecyl sulphate (SDS) sample buffer and loaded onto a 4-10% HCL-Tris pre cast polyacrylamide gel (BioRad, Mississauga). The gel was run at 200 v for 35 min and proteins were electrotransfered to a Hybond-C nitrocellulose membrane (Amersham, Baie d'Urfé) for 75 min at 100 v. After transfer, the membrane was washed with 10 ml of PBS with 0.05% Tween 20 (PBST) for 5 min at room temperature (RT) and the membrane was incubated in 10 ml of PBST-milk for one hour at RT followed by 3 times for 5 min washes with 10 ml of PBST. The membrane was then incubated with cleaved caspase 3 primary antibody (Cell Signaling Technology, Beverly) at a titre of 1:500 in 6 ml of PBST-milk with gentle agitation overnight at 4° C. The membranes were washed 3 times for 5 min with 10 ml of PBST followed by membrane incubation with anti-rabbit horseradish peroxidase (HRP)-conjugated secondary antibody (Amersham, Baie d'Urfé) at 1:3000 in 6 ml of PBST-milk with gentle agitation for 1 hr at RT. […]

On to `COc1cc([C@@H]2c3cc4c(cc3[C@@H](O[C@@H]3O[C@@H]5CO[C@@H](C)O[C@H]5[C@H](O)[C@H]3O)[C@H]3COC(=O)[C@H]23)OCO4)cc(OC)c1O` [Etoposide, etoposide, reference compound], for which the “increase in caspase 8 relative to vehicle-treated cells” value in the assay on caspase 8 is “greater than 3 fold”. Also, the “increase in caspase-3 relative to vehicle-treated cells” value in the assay with caspase 3 is 3.5 fold. For the same compound, the “caspase 3 cleavage product (17/19 kDa) on western blot” value with cleaved caspase 3 was “clearly visible”.
